The record followed here is patent US20230406865A1, “CRYSTAL FORM OF FREE BASE OF INHIBITOR CONTAINING BICYCLIC RING DERIVATIVE AND PREPARATION METHOD AND APPLICATION OF CRYSTAL FORM” (SHANGHAI HANSOH BIOMEDICAL CO., LTD., priority 2020, published 2023).

One assay addresses T1, KDR kinase (Homo sapiens, UniProt P35968).
T1 construct: purchased Carna 08-191
Briefly: HTRF kinase activity inhibition, KDR. The format is biochemical. The following applies: for IC50: HTRF, ATP at Km; for Ratio (KDR/RET): KDR IC50 / RET IC50. From the text:
2.2 Experimental Reagents: • KDR kinase was purchased from Carna Company, and the article number was 08-191; • HTRF KinEASE-TK kit was purchased from Cisbio Company, and the article number was 62TK0PEC; • ATP was purchased from Thermofisher Company, and the article number was PV3227; • 384-well plate was purchased from PerkinElmer Company, and the article number was 6007290.
In this experiment, the homogeneous time-resolved fluorescence (HTRF) method was used for the detection of compounds on KDR kinase activity.

The target of another assay is T2, RET kinase (Homo sapiens, UniProt P07949).
T2 construct: purchased Carna 08-159
T2 sequence (P07949 29-1114): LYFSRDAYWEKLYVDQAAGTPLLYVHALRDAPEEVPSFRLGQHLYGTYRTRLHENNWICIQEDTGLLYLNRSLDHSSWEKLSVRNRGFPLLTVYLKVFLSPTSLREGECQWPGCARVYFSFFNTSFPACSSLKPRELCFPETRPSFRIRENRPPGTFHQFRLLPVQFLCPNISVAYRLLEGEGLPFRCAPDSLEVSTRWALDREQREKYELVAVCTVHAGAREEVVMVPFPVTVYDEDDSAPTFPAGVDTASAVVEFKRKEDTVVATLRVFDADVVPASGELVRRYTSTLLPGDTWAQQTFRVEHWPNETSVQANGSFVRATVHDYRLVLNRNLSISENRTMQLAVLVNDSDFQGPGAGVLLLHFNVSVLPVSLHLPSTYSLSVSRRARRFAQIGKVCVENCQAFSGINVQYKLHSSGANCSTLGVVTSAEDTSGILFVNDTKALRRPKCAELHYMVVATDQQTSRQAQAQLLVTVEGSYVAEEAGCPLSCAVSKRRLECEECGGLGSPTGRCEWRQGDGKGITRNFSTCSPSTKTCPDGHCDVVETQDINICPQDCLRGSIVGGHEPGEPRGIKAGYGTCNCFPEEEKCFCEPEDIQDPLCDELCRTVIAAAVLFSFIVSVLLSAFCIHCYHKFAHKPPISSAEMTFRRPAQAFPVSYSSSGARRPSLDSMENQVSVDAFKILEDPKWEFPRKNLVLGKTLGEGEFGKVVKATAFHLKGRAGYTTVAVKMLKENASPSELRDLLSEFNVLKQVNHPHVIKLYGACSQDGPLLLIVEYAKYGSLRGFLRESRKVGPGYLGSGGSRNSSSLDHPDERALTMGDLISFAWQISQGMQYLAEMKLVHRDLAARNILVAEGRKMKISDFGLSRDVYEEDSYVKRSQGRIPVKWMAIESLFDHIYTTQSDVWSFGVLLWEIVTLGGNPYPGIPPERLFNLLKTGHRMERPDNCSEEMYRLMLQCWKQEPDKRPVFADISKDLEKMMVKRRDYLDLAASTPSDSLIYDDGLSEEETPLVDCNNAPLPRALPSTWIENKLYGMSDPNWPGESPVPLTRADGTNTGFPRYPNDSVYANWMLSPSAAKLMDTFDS
Briefly: HTRF kinase activity inhibition, RET wild-type. It counts as biochemical. Particulars: ATP at Km. An excerpt: 2.2 Experimental Reagents: • RET enzyme was purchased from Carna Company, and the article number was 08-159; • RET M918T enzyme was purchased from Carna Company, and the article number was 08-508; • KIF5B-RET was purchased from SignalChem Company, the article number was R02-19FG-05; • CCDC6-RET was purchased from SignalChem Company, the article number was R02-19BG-05; • RET V804M enzyme was purchased from Thermofisher Company, and the article number was PV6223; • RET V804L enzyme was purchased from Thermofisher Company, and the article number was PV4397; • HTRF KinEASE-TK kit was purchased from Cisbio Company, and the article number was 62TK0PEC; • ATP was purchased from Thermofisher Company, and the article number was PV3227; • 384-well plate was purchased from PerkinElmer Company, and the article number was 6007290.
In this experiment, a homogeneous time-resolved fluorescence (HTRF) method was used for the detection of compounds on RET kinase activity.

T1 sequence (P35968 20-1356): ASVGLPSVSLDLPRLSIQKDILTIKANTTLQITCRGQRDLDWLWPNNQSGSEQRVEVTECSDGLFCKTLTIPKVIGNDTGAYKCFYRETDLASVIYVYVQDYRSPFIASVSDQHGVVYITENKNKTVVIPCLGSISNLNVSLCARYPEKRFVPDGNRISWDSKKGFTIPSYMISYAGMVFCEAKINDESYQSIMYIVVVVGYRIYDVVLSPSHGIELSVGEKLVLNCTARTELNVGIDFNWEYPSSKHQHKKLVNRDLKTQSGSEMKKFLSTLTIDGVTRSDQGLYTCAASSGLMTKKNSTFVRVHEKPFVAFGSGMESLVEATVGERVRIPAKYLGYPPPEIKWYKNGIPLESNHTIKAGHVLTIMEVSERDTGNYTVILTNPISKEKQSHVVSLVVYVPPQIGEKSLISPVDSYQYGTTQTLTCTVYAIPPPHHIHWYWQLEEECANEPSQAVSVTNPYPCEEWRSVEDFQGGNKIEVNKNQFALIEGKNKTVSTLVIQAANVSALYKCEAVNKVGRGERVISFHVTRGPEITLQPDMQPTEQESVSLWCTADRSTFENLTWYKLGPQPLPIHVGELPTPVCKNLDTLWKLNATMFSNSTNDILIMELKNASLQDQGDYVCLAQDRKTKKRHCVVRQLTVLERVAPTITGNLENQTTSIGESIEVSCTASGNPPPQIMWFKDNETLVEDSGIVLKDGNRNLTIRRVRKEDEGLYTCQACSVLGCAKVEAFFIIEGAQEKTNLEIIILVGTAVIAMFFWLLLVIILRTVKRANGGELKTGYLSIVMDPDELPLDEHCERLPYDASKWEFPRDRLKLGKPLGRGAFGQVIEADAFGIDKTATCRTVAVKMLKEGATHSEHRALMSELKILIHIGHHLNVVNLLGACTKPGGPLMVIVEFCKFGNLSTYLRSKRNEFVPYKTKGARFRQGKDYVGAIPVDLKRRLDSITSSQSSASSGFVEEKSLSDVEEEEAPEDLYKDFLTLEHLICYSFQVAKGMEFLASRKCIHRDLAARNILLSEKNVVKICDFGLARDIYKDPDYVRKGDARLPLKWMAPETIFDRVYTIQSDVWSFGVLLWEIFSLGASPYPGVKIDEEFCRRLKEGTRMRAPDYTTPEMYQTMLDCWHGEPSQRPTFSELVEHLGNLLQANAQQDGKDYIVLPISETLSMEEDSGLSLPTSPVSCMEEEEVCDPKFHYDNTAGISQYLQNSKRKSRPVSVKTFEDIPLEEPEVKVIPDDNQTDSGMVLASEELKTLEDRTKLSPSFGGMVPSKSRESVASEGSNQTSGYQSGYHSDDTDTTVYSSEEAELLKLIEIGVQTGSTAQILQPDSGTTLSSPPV

As to `CC1(C#N)CN(c2cc(-c3ccc(N4CCC(C)(NC(=O)c5ncccc5Cl)CC4)nc3)c3c(C#N)cnn3c2)C1` [Embodiment 96, 3-Chloro-N-(1-(5-(3-cyano-6-(3-cyano-3-methylazetidin-1-yl)pyrazolo[1,5-a]pyridin-4-yl)pyridin-2-yl)-4-methylpiperidin-4-yl)picolinamide], at KDR kinase, the IC50 was found to be 15.8 nM and the “Ratio (KDR/RET)” value is 22. At RET kinase, this molecule registered an IC50 of 0.72 nM.
For `COc1ccc(CN2C3CC2CN(c2ccc(-c4cc(OCCCS(C)(=N)=O)cn5ncc(C#N)c45)cn2)C3)cn1` (stereo not drawn) [Embodiment 6, 4-(6-(6-((6-Methoxypyridin-3-yl)methyl)-3,6-diazabicyclo[3.1.1]heptan-3-yl)pyridin-3-yl)-6-(3-(S-methylsulfonimidoyl)propoxy)pyrazolo[1,5-a]pyridine-3-carbonitrile], at KDR kinase, the 50% inhibitory concentration (IC50) is 27.7 nM and the “Ratio (KDR/RET)” value is 35. Also, the IC50 against RET kinase was determined as 0.79 nM.
The matching figures for `COc1ccc(CN2C3CC2CN(c2ccc(-c4cc(N5CC(C)(O)C5)cn5ncc(C#N)c45)cn2)C3)cn1` [Embodiment 33, 6-(3-Hydroxy-3-methylazetidin-1-yl)-4-(6-(6-((6-methoxypyridin-3-yl)methyl)-3,6-diazabicyclo[3.1.1]heptan-3-yl)pyridin-3-yl)pyrazolo[1,5-a]pyridine-3-carbonitrile]: 5.6 nM, 14 and 0.4 nM.
The matching figures for `COc1ccc(CN2C3CC2CN(c2ccc(-c4cc(NC(=O)C5(C#N)CC5)cn5ncc(C#N)c45)cn2)C3)cn1` [Embodiment 74, 1-Cyano-N-(3-cyano-4-(6-(6-((6-methoxypyridin-3-yl)methyl)-3,6-diazabicyclo[3.1.1]heptan-3-yl)pyridin-3-yl)pyrazolo[1,5-a]pyridin-6-yl)cyclopropane-1-carboxamide]: 247 nM, 137 and 1.8 nM.
Take `COc1ccc(CN2C3CC2CN(c2ccc(-c4cc(N5CCC(C)(O)C5)cn5ncc(C#N)c45)cn2)C3)cn1` (stereo not drawn) [Embodiment 34, 6-(3-Hydroxy-3-methylpyrrolidin-1-yl)-4-(6-(6-((6-methoxypyridin-3-yl)methyl)-3,6-diazabicyclo[3.1.1]heptan-3-yl)pyridin-3-yl)pyrazolo[1,5-a]pyridine-3-carbonitrile]: at KDR kinase, half-maximal inhibition (IC50) was put at 4.7 nM and the “Ratio (KDR/RET)” value is given as 7. Also, the IC50 on RET kinase was 0.7 nM.
As to `CC1(NC(=O)c2ncccc2Cl)CCN(c2ccc(-c3cc(N4CC(C(C)(C)O)C4)cn4ncc(C#N)c34)cn2)CC1` [Embodiment 88, 3-Chloro-N-(1-(5-(3-cyano-6-(3-(2-hydroxypropan-2-yl)azetidin-1-yl)pyrazolo[1,5-a]pyridin-4-yl)pyridin-2-yl)-4-methylpiperidin-4-yl)picolinamide], the IC50 at KDR kinase stood at 61 nM; against RET kinase, 1.2 nM. Also, the “Ratio (KDR/RET)” value on KDR kinase is on record as 49.
Taken in the same sequence, the figures for `CC1(O)CC2(CN(c3cc(-c4ccc(N5CCC(C)(NC(=O)c6ncccc6Cl)CC5)nc4)c4c(C#N)cnn4c3)C2)C1` [Embodiment 89, 3-Chloro-N-(1-(5-(3-cyano-6-(6-hydroxy-6-methyl-2-azaspiro[3.3]heptan-2-yl)pyrazolo[1,5-a]pyridin-4-yl)pyridin-2-yl)-4-methylpiperidin-4-yl)picolinamide] were 8.9 nM, 1.1 nM and 8.
On to `COc1ccc(CN2C3CC2CN(c2ccc(-c4cc(OCC5(C#N)COC5)cn5ncc(C#N)c45)cn2)C3)cn1` [Embodiment 37, 6-((3-Cyanooxetan-3-yl)methoxy)-4-(6-(6-((6-methoxypyridin-3-yl)methyl)-3,6-diazabicyclo[3.1.1]heptan-3-yl)pyridin-3-yl)pyrazolo[1,5-a]pyridine-3-carbonitrile], for which, at KDR kinase, the IC50 came out at 60.4 nM and the “Ratio (KDR/RET)” value is 85. The molecule further yielded an IC50 on RET kinase of 0.71 nM.
The matching figures for `COc1ccc(CN2C3CC2CN(c2ccc(-c4cc(NC(=O)C(C)(C)O)cn5ncc(C#N)c45)cn2)C3)cn1` [Embodiment 42, N-(3-Cyano-4-(6-(6-((6-methoxypyridin-3-yl)methyl)-3,6-diazabicyclo[3.1.1]heptan-3-yl)pyridin-3-yl)pyrazolo[1,5-a]pyridin-6-yl)-2-hydroxy-2-methylpropanamide]: 105 nM, 67 and 1.56 nM.
The matching figures for `COc1ccc(CN2C3CC2CN(c2ccc(-c4cc(OCC5(C#N)CC(F)(F)C5)cn5ncc(C#N)c45)cn2)C3)cn1` [Embodiment 57, 6-((1-Cyano-3,3-difluorocyclobutyl)methoxy)-4-(6-(6-((6-methoxypyridin-3-yl)methyl)-3,6-diazabicyclo[3.1.1]heptan-3-yl)pyridin-3-yl)pyrazolo[1,5-a]pyridine-3-carbonitrile]: 209 nM, 187 and 1.1 nM.
Taken in the same sequence, the figures for `COc1ccc(CN2C3CC2CN(c2ccc(-c4cc(OCC5CS(=N)(=O)C5)cn5ncc(C#N)c45)cn2)C3)cn1` (stereo not drawn) [Embodiment 12, 6-((1-Imino-1-hydroxy-1l6-thietan-3-yl)methoxy)-4-(6-(6-((6-methoxypyridin-3-yl)methyl)-3,6-diazabicyclo[3.1.1]heptan-3-yl)pyridin-3-yl)pyrazolo[1,5-a]pyridine-3-carbonitrile] were 69 nM, 55 and 1.3 nM.
`COc1ccc(CN2C3CC2CN(c2ccc(-c4cc(N5CCC(C)(O)CC5)cn5ncc(C#N)c45)cn2)C3)cn1` [Embodiment 35, 6-(4-Hydroxy-4-methylpiperidin-1-yl)-4-(6-(6-((6-methoxypyridin-3-yl)methyl)-3,6-diazabicyclo[3.1.1]heptan-3-yl)pyridin-3-yl)pyrazolo[1,5-a]pyridine-3-carbonitrile]: at KDR kinase, the IC50 amounted to 6.2 nM and the “Ratio (KDR/RET)” value was 13. The molecule further came in with an IC50 on RET kinase of 0.49 nM.
The matching figures for `CC1(NC(=O)c2ncccc2F)CCN(c2ccc(-c3cc(OCC4(C#N)CC4)cn4ncc(C#N)c34)cn2)CC1` [Embodiment 93, N-(1-(5-(3-Cyano-6-((1-cyanocyclopropyl)methoxy)pyrazolo[1,5-a]pyridin-4-yl)pyridin-2-yl)-4-methylpiperidin-4-yl)-3-fluoropicolinamide]: 150 nM, 136 and 1.1 nM.
